The test has as its target human adenosine A2b receptor (Homo sapiens (Human), UniProt P29275). Briefly: Cellular in vitro reporter gene test for A2b receptor activity (CHO-K1, CRE-luciferase, NECA stimulation). The test is classed as cell-based. Particulars: recombinant CHO-K1 cell line, CRE-luciferase reporter, antagonism of EC50 concentration of NECA; in some cases means of several determinations, rounded to two significant figures; read-out: A2b receptor IC50. The method in brief:
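CHO-K1 cells with CRE-driven luciferase; antagonists co-incubated with NECA at its EC50, determined in a pre-experiment on each test day. Luciferase read by luminescence 3 h after NECA addition.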
For orientation: A reporter such as luciferase makes a cellular process visible.

Experimental findings from US10428083B2, “Heterocyclylmethyl-thienouracile as antagonists of the adenosine-A2B-receptor” (BAYER PHARMA AKTIENGESELLSCHAFT, priority 2015, dated 2019) are described below.

Chain of human adenosine A2b receptor (P29275 whole entry): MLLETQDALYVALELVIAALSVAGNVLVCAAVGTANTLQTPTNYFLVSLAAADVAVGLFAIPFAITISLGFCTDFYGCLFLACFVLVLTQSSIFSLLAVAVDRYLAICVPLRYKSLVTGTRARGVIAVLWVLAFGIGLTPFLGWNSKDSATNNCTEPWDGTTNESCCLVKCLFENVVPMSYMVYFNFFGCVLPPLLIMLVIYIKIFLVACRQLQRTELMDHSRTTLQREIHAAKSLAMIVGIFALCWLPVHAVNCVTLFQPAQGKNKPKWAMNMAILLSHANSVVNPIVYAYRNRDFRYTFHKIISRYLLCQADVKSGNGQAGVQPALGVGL

With `CCn1c(=O)c2c(C)c(CN3CCNC3=O)sc2n(CCN(C)C)c1=O` [Example 83, 1-[2-(Dimethylamino)ethyl]-3-ethyl-5-methyl-6-[(2-oxoimidazolidin-1-yl)methyl]thieno[2,3-d]pyrimidine-2,4(1H,3H)-dione], the half-maximal inhibitory concentration (IC50) came to 380 nM.

In the case of `Cc1c(CN2CCNC2=S)sc2c1c(=O)n(CC(F)F)c(=O)n2CCCF` [Example 42, 3-(2,2-Difluoroethyl)-1-(3-fluoropropyl)-5-methyl-6-[(2-thioxoimidazolidin-1-yl)methyl]thieno[2,3-d]pyrimidine-2,4(1H,3H)-dione], the IC50 is 11 nM.

`CCn1c(=O)c2c(C)c(CN3CCNC3=O)sc2n(CCCOC)c1=O` [Example 311, 3-Ethyl-1-(3-methoxypropyl)-5-methyl-6-[(2-oxoimidazolidin-1-yl)methyl]thieno[2,3-d]pyrimidine-2,4(1H,3H)-dione]: the IC50 turned out to be 31 nM.

As for `CCn1c(=O)c2c(C)c(CN3CCNC3=O)sc2n(CCC(F)(F)F)c1=O` [Example 48, 3-Ethyl-5-methyl-6-[(2-oxoimidazolidin-1-yl)methyl]-1-(3,3,3-trifluoropropyl)thieno[2,3-d]pyrimidine-2,4(1H,3H)-dione], the IC50 is 1.4 nM.

Consider `Cc1c(Cn2nc[nH]c2=O)sc2c1c(=O)n(CC(C)(C)C)c(=O)n2CC1CCCO1` (single isomer, unassigned) [Example 431, 3-(2,2-Dimethylpropyl)-5-methyl-6-[(5-oxo-4,5-dihydro-1H-1,2,4-triazol-1-yl)methyl]-1-(tetrahydrofuran-2-ylmethyl)thieno[2,3-d]pyrimidine-2,4(1H,3H)-dione], for which the IC50 was determined as 740 nM.

Consider `COCCn1c(=O)c2c(C)c(CN3CCNC3=NC#N)sc2n(CC2CCO2)c1=O` (single isomer, unassigned) [Example 366, [1-{[3-Methoxyethyl-5-methyl-1-(oxetan-2-ylmethyl)-2,4-dioxo-1,2,3,4-tetrahydrothieno[2,3-d]pyrimidin-6-yl]methyl}imidazolidin-2-ylidene]cyanamide], for which the IC50 was 40 nM.

Turning to `CCN1CCN(Cc2sc3c(c2C)c(=O)n(CCc2ccccc2)c(=O)n3CCOC)C1=O` [Example 239, 6-[(3-Ethyl-2-oxoimidazolidin-1-yl)methyl]-1-(2-methoxyethyl)-5-methyl-3-(2-phenylethyl)thieno[2,3-d]pyrimidine-2,4(1H,3H)-dione], the IC50 was determined as 11 nM.

`CCn1c(=O)c2c(C)c(Cn3[nH]ccc3=O)sc2n(CC2CCCO2)c1=O` (single isomer, unassigned) [Example 130, 3-Ethyl-5-methyl-6-[(5-oxo-2,5-dihydro-1H-pyrazol-1-yl)methyl]-1-(tetrahydrofuran-2-ylmethyl)thieno[2,3-d]pyrimidine-2,4(1H,3H)-dione]: the IC50 stood at 30 nM.

For the compound `Cc1c(CN2CCNC(=O)C2=O)sc2c1c(=O)n(CC(F)(F)F)c(=O)n2CC1CCO1` (racemic) [Example 123, 6-[(2,3-Dioxopiperazin-1-yl)methyl]-5-methyl-1-(oxetan-2-ylmethyl)-3-(2,2,2-trifluoroethyl)thieno[2,3-d]pyrimidine-2,4(1H,3H)-dione], the half-maximal inhibitory concentration (IC50) was found to be 53 nM.

`COCCn1c(=O)c2c(C)c(CN3CCNC3=S)sc2n(CCC(F)(F)F)c1=O` [Example 167, 3-(2-Methoxyethyl)-5-methyl-6-[(2-thioxoimidazolidin-1-yl)methyl]-1-(3,3,3-trifluoropropyl)thieno[2,3-d]pyrimidine-2,4(1H,3H)-dione]: the IC50 was 1.2 nM.

Consider `CCn1c(=O)c2c(C)c(CN3CCNC3=NC(=O)OC)sc2n(CC2CCCO2)c1=O` (racemic) [Example 374, Methyl [1-{[3-ethyl-5-methyl-2,4-dioxo-1-(tetrahydrofuran-2-ylmethyl)-1,2,3,4-tetrahydrothieno[2,3-d]pyrimidin-6-yl]methyl}imidazolidin-2-ylidene]carbamate], for which the IC50 amounted to 7 nM.

As usually defined, the IC50 is the concentration that gives 50% inhibition.
